Laboratory results as given in ChEMBL document CHEMBL1201862, “PubChem BioAssay data set” (2004).
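Values below derive from 48-hour exposures of cells grown in 96-well plates, with endpoints linearly interpolated between the two concentrations bracketing the appropriate inhibition level. Abbreviation: GI50, concentration required for 50% inhibition of growth.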 Calls of active or inactive are those of the source. No stated cut-off is given here; in the data, active = GI50 up to about 1.1 µM and inactive = higher.

Key:
Assay in all cases: inhibition of tumour cell growth, NCI panel, 48 h
CCRF-CEM = test system: CCRF-CEM
EKVX = test system: EKVX
HOP-92 = test system: HOP-92
HT-29 = test system: HT-29
K562 = test system: K562
NCI-H522 = test system: NCI-H522
OVCAR-4 = test system: OVCAR-4
OVCAR-5 = test system: OVCAR-5
OVCAR-8 = test system: OVCAR-8
SF-295 = test system: SF-295
SN12C = test system: SN12C
SR = test system: SR
TK-10 = test system: TK-10
U-251 = test system: U-251
UACC-62 = test system: UACC-62
HCT-116 = test system: HCT-116
OVCAR-3 = test system: OVCAR-3

Row | Compound | GI50 (CCRF-CEM) | GI50 (EKVX) | GI50 (HOP-92) | GI50 (HT-29) | GI50 (K562) | GI50 (NCI-H522) | GI50 (OVCAR-4) | GI50 (OVCAR-5) | GI50 (OVCAR-8) | GI50 (SF-295) | GI50 (SN12C) | GI50 (SR) | GI50 (TK-10) | GI50 (U-251) | GI50 (UACC-62) | GI50 (HCT-116) | GI50 (OVCAR-3)
1 | O=c1[nH]c(=O)n(C2CC(O)C(CO)O2)cc1/C=C/Br (stereo unspecified) | > 100 µM (inactive) | > 100 µM (inactive) | > 100 µM (inactive) | > 100 µM (inactive) | > 100 µM (inactive) | > 100 µM (inactive) | > 100 µM (inactive) | > 100 µM (inactive) | > 100 µM (inactive) | > 100 µM (inactive) | > 100 µM (inactive) | > 100 µM (inactive) | > 100 µM (inactive) | > 100 µM (inactive) | > 100 µM (inactive) | – | –
2 | CNCCCCN(C)/[N+]([O-])=N\O | > 100 µM (inactive) | > 100 µM (inactive) | > 100 µM (inactive) | > 100 µM (inactive) | > 100 µM (inactive) | > 100 µM (inactive) | > 100 µM (inactive) | > 100 µM (inactive) | > 100 µM (inactive) | > 100 µM (inactive) | > 100 µM (inactive) | – | – | > 100 µM (inactive) | > 100 µM (inactive) | > 100 µM (inactive) | > 100 µM (inactive)
3 | O=C(c1c(O)cc(O)cc1O)C1Cc2ccccc21 (stereo unspecified) | > 100 µM (inactive) | – | 19.1 µM (inactive) | > 100 µM (inactive) | 68.1 µM (inactive) | 10.3 µM (inactive) | 30.4 µM (inactive) | > 100 µM (inactive) | 39.2 µM (inactive) | 42.3 µM (inactive) | > 100 µM (inactive) | > 100 µM (inactive) | > 100 µM (inactive) | 47.2 µM (inactive) | > 100 µM (inactive) | 86.5 µM (inactive) | –
4 | COc1nc(NC2OC(COC(C)=O)C(OC(C)=O)C(OC(C)=O)C2OC(C)=O)c(/N=C(\C)C(C)=O)c(=O)n1C (stereo unspecified) | > 100 µM (inactive) | > 100 µM (inactive) | > 100 µM (inactive) | > 100 µM (inactive) | > 100 µM (inactive) | – | > 100 µM (inactive) | > 100 µM (inactive) | > 100 µM (inactive) | > 100 µM (inactive) | > 100 µM (inactive) | – | > 100 µM (inactive) | > 100 µM (inactive) | > 100 µM (inactive) | > 100 µM (inactive) | > 100 µM (inactive)
5 | CC(=O)N1CCC2(c3ccccc3N(C(C)=O)C2c2ccc(O)cc2)C1C(=O)O (stereo unspecified) | > 100 µM (inactive) | > 100 µM (inactive) | > 100 µM (inactive) | > 100 µM (inactive) | > 100 µM (inactive) | > 100 µM (inactive) | – | > 100 µM (inactive) | > 100 µM (inactive) | > 100 µM (inactive) | > 100 µM (inactive) | > 100 µM (inactive) | > 100 µM (inactive) | > 100 µM (inactive) | > 100 µM (inactive) | > 100 µM (inactive) | > 100 µM (inactive)
6 | Fc1ccccc1C1SCc2nc3ccccc3n21 (stereo unspecified) | 43.1 µM (inactive) | 37.5 µM (inactive) | 19.7 µM (inactive) | > 100 µM (inactive) | 16.3 µM (inactive) | 28 µM (inactive) | – | 41.5 µM (inactive) | 49.4 µM (inactive) | 41.8 µM (inactive) | 79.6 µM (inactive) | 38.1 µM (inactive) | > 100 µM (inactive) | – | 35 µM (inactive) | 38.5 µM (inactive) | 38.4 µM (inactive)
7 | O=C1CCC2(c3ccc(Cl)cc3)Nc3ncccc3N12 (stereo unspecified) | > 100 µM (inactive) | > 100 µM (inactive) | > 100 µM (inactive) | > 100 µM (inactive) | > 100 µM (inactive) | > 100 µM (inactive) | > 100 µM (inactive) | > 100 µM (inactive) | > 100 µM (inactive) | > 100 µM (inactive) | > 100 µM (inactive) | – | > 100 µM (inactive) | > 100 µM (inactive) | > 100 µM (inactive) | – | > 100 µM (inactive)
8 | CSc1c(C)c(C)nn1-c1ccccc1 | > 100 µM (inactive) | > 100 µM (inactive) | – | > 100 µM (inactive) | > 100 µM (inactive) | > 100 µM (inactive) | > 100 µM (inactive) | > 100 µM (inactive) | > 100 µM (inactive) | > 100 µM (inactive) | > 100 µM (inactive) | – | > 100 µM (inactive) | > 100 µM (inactive) | > 100 µM (inactive) | – | –
9 | O=C(Cc1nc2ccccc2s1)Nc1ccc(Cl)cc1 | > 100 µM (inactive) | > 100 µM (inactive) | – | > 100 µM (inactive) | 38.9 µM (inactive) | > 100 µM (inactive) | > 100 µM (inactive) | > 100 µM (inactive) | > 100 µM (inactive) | 55.6 µM (inactive) | > 100 µM (inactive) | > 100 µM (inactive) | > 100 µM (inactive) | > 100 µM (inactive) | 82.2 µM (inactive) | > 100 µM (inactive) | > 100 µM (inactive)
10 | CC(C)(C)OC1=C(OC(C)(C)C)C(O)(c2ccccc2)C1=O (stereo unspecified) | > 100 µM (inactive) | > 100 µM (inactive) | – | > 100 µM (inactive) | > 100 µM (inactive) | – | > 100 µM (inactive) | > 100 µM (inactive) | > 100 µM (inactive) | > 100 µM (inactive) | > 100 µM (inactive) | – | > 100 µM (inactive) | > 100 µM (inactive) | > 100 µM (inactive) | – | > 100 µM (inactive)
11 | COC(=O)C1=C(C(=O)OC)C2(C3C(SC)=CC(C)(C)CC3S1)N(Cc1ccccc1)CCN2Cc1ccccc1 (stereo unspecified) | > 100 µM (inactive) | > 100 µM (inactive) | < 0.01 µM (active) | > 100 µM (inactive) | 62.7 µM (inactive) | > 100 µM (inactive) | > 100 µM (inactive) | > 100 µM (inactive) | > 100 µM (inactive) | > 100 µM (inactive) | > 100 µM (inactive) | – | > 100 µM (inactive) | > 100 µM (inactive) | > 100 µM (inactive) | > 100 µM (inactive) | > 100 µM (inactive)
12 | CCN(CC)CCCC(C)Nc1c(Sc2cnc3cc(Cl)ccc3c2NC(C)CCCN(CC)CC)cnc2cc(Cl)ccc12 (stereo unspecified) | 2.2 µM (inactive) | – | 1.96 µM (inactive) | 1.65 µM (inactive) | 1.55 µM (inactive) | 1.73 µM (inactive) | 1.73 µM (inactive) | 1.73 µM (inactive) | 1.69 µM (inactive) | – | 1.88 µM (inactive) | – | 1.79 µM (inactive) | 1.63 µM (inactive) | 1.74 µM (inactive) | 1.37 µM (inactive) | 1.9 µM (inactive)
13 | CC(C)CN1CC(C)C(=O)NC1=O (stereo unspecified) | > 100 µM (inactive) | > 100 µM (inactive) | > 100 µM (inactive) | > 100 µM (inactive) | > 100 µM (inactive) | > 100 µM (inactive) | > 100 µM (inactive) | > 100 µM (inactive) | > 100 µM (inactive) | > 100 µM (inactive) | > 100 µM (inactive) | > 100 µM (inactive) | > 100 µM (inactive) | > 100 µM (inactive) | > 100 µM (inactive) | – | –
14 | O=c1cc2ccccc2nn1Cc1cccc(Cl)c1 | 71.1 µM (inactive) | > 100 µM (inactive) | > 100 µM (inactive) | > 100 µM (inactive) | 32.4 µM (inactive) | – | > 100 µM (inactive) | > 100 µM (inactive) | 73.3 µM (inactive) | > 100 µM (inactive) | 97.9 µM (inactive) | – | > 100 µM (inactive) | > 100 µM (inactive) | > 100 µM (inactive) | 78.9 µM (inactive) | 62.2 µM (inactive)
15 | CC(=O)OC1(C#N)CC2OC1C1C2N1C(=O)OC(C)(C)C (stereo unspecified) | > 100 µM (inactive) | > 100 µM (inactive) | > 100 µM (inactive) | – | > 100 µM (inactive) | > 100 µM (inactive) | > 100 µM (inactive) | > 100 µM (inactive) | > 100 µM (inactive) | – | > 100 µM (inactive) | – | > 100 µM (inactive) | > 100 µM (inactive) | > 100 µM (inactive) | > 100 µM (inactive) | –
16 | COc1ccc2c3c1C(=O)CCCC3CO2 (stereo unspecified) | > 100 µM (inactive) | – | > 100 µM (inactive) | > 100 µM (inactive) | > 100 µM (inactive) | > 100 µM (inactive) | > 100 µM (inactive) | > 100 µM (inactive) | > 100 µM (inactive) | > 100 µM (inactive) | > 100 µM (inactive) | – | > 100 µM (inactive) | > 100 µM (inactive) | > 100 µM (inactive) | – | > 100 µM (inactive)
17 | CN(C)c1ccc(/C=c2/sc3nc(=O)c(-c4ccccc4NC(=O)C(F)(F)F)nn3c2=O)cc1 | > 100 µM (inactive) | > 100 µM (inactive) | 77.4 µM (inactive) | > 100 µM (inactive) | > 100 µM (inactive) | > 100 µM (inactive) | > 100 µM (inactive) | > 100 µM (inactive) | > 100 µM (inactive) | > 100 µM (inactive) | > 100 µM (inactive) | 93.8 µM (inactive) | > 100 µM (inactive) | 53.3 µM (inactive) | > 100 µM (inactive) | – | > 100 µM (inactive)
18 | CC1CCC2CC(=O)OC([C@@H]3C(=O)O[C@@H](C4=CCCC4)C4C(C)CCC43)C12 (stereo partly specified) | 34.8 µM (inactive) | > 100 µM (inactive) | – | 61 µM (inactive) | 43.7 µM (inactive) | 51.3 µM (inactive) | > 10 µM (inactive) | – | 68.5 µM (inactive) | 79.1 µM (inactive) | > 100 µM (inactive) | 39 µM (inactive) | 54.5 µM (inactive) | 48.6 µM (inactive) | > 100 µM (inactive) | 43.9 µM (inactive) | 73.1 µM (inactive)
